Where two headings read alike, the source gives them in different places.
What was measured:
CYP2C9 [1] = assay: in vitro; settings: human
CYP2C8 [2] = assay: in vitro; settings: human
CYP3A4 [3] = assay: CYP3A4 enzyme activity induction in HTC model (midazolam 1-hydroxylation)
CYP2C8 [4] = assay: CYP2C8 mRNA induction in HTC model
CYP2C9 [5] = assay: in vitro; settings: human, probe diclofenac (4-hydroxy diclofenac formation)
CYP2C9 [6] = assay: CYP2C9 enzyme activity induction in HTC model (diclofenac 4-hydroxylation)
CYP2C19 [7] = assay: CYP2C19 enzyme activity induction in HTC model (omeprazole 5-hydroxylation)
CYP2C9 [8] = assay: CYP2C9 mRNA induction in HTC model
CYP3A4 [9] = assay: CYP3A4 mRNA induction in human hepatocyte triculture (HTC) model
CYP2B6 [10] = assay: in vitro; settings: human
CYP2C19 [11] = assay: in vitro; settings: human
CYP2B6 [12] = assay: CYP2B6 mRNA induction in HTC model
CYP2C19 [13] = assay: CYP2C19 mRNA induction in HTC model
[14] = cited from earlier work
CYP3A4 [15] = assay: in vitro; settings: human
CYP2C19 [16] = settings: victim drug; References of Tables 3 and 4 ([27]-[44]); cited from earlier work
CYP3A4 [17] = settings: victim drug; References of Tables 3 and 4 ([27]-[44]); cited from earlier work
[18] = Donor 1, nominal concentrations, 96 h
[19] = victim drug after administration with rifampicin, References of Table 4 ([27]-[43]), DIDB

CNC(=O)c1ccc(N2C(=S)N(c3cnc(C#N)c(C(F)(F)F)c3)C(=O)C23CCC3)cc1F [Apalutamide, apalutamide]
EC50 at 96 h (CYP2C9 [1]): 794 nM
EC50 at 96 h (CYP2C8 [2]): 1680 nM
EC50 (CYP2C8 [4]; Donor 2): 1.22 µM
EC50 (CYP2C8 [4]; Donor 3): 1.26 µM
EC50 at 96 h (CYP2C9 [5]): 13.1 µM
EC50 (CYP2C9 [6]; Donor 3): 23.7 µM
EC50 (CYP2C19 [7]; Donor 1): 455 nM
EC50 (CYP2C19 [7]; Donor 2): 1030 nM
EC50 (CYP2C19 [7]; Donor 3): 865 nM
EC50 (CYP2C9 [8]; Donor 2): 419 nM
EC50 (CYP2C9 [8]; Donor 3): 474 nM
EC50 at 96 h (CYP2B6 [10]): 4.44 µM
EC50 at 96 h (CYP2C19 [11]): 4.01 µM
EC50 (CYP2B6 [12]; Donor 2): 2.98 µM
EC50 (CYP2B6 [12]; Donor 3): 2.96 µM
EC50 (CYP2C19 [13]; Donor 2): 5.22 µM
EC50 (CYP2C19 [13]; Donor 3): 6.04 µM

CC(NC(C)(C)C)C(=O)c1cccc(Cl)c1 (stereo not drawn) [Bupropion, bupropion]
% AUC Reduction (Clinically Observed) [14, 19]: 67.2%

NC(=O)N1c2ccccc2C=Cc2ccccc21 [Carbamazepine, carbamazepine]
EC50 at 96 h (CYP2C9 [1]): 9860 nM
EC50 (CYP2C8 [4]; Donor 1): 35.6 µM
EC50 (CYP2C8 [4]; Donor 2): 20 µM
EC50 (CYP2C8 [4]; Donor 3): 40.2 µM
EC50 at 96 h (CYP2C9 [5]): 41.4 µM
EC50 (CYP2C19 [7]; Donor 1): 8140 nM
EC50 (CYP2C19 [7]; Donor 2): 2050 nM
EC50 (CYP2C19 [7]; Donor 3): 18000 nM
EC50 at 96 h (CYP2B6 [10]): 46.9 µM
EC50 at 96 h (CYP2C19 [11]): 124 µM
EC50 (CYP2B6 [12]; Donor 2): 41.9 µM
EC50 (CYP2B6 [12]; Donor 3): 59 µM
EC50 (CYP2C19 [13]; Donor 2): 186 µM
EC50 (CYP2C19 [13]; Donor 3): 182 µM

O=C1Nc2ccc(Cl)cc2[C@@](C#CC2CC2)(C(F)(F)F)O1 [Efavirenz, efavirenz]
EC50 at 96 h (CYP2C9 [1]): 455 nM
EC50 (CYP2C8 [4]; Donor 1): 4.48 µM
EC50 (CYP2C8 [4]; Donor 2): 1.97 µM
EC50 (CYP2C8 [4]; Donor 3): 2.95 µM
EC50 at 96 h (CYP2C9 [5]): 4.29 µM
EC50 (CYP2C19 [7]; Donor 1): 946 nM
EC50 (CYP2C19 [7]; Donor 2): 297 nM
EC50 (CYP2C19 [7]; Donor 3): 2480 nM
EC50 (CYP2C19 [13]; Donor 1): 8.3 µM
EC50 (CYP2C19 [13]; Donor 3): 2.91 µM

COc1ccc(Cl)cc1C(=O)NCCc1ccc(S(=O)(=O)NC(=O)NC2CCCCC2)cc1 [Glyburide, glyburide]
% AUC Reduction (Clinically Observed) [14, 19]: 38.9%

Cc1ncc2n1-c1ccc(Cl)cc1C(c1ccccc1F)=NC2 [Midazolam, midazolam]
% AUC Reduction (Clinically Observed) ([14]; in vivo): 94.7%

COc1ccc2[nH]c([S+]([O-])Cc3ncc(C)c(OC)c3C)nc2c1 (stereo not drawn) [Omeprazole, omeprazole]
fm CYP2C19 (CYP2C19 [16]): 0.68
fm CYP3A4 (CYP3A4 [17]): 0.32
% AUC Reduction (Clinically Observed) [14, 19]: 86.1%

From paper PMC12389355, “Physiologically Based Pharmacokinetic Modeling to Assess Perpetrator and Victim Cytochrome P450 2C Induction Risk” (Pharmaceutics, 2025)
